# System: individuals genotyped at the rs993648 locus
# Test: QT interval change after two weeks of oral iloperidone in 174 individuals genotyped at the CERKL rs993648 locus
# Type: in vivo, human
# Settings: iloperidone 24 mg/day B.I.D. oral; for High QT, - test (number of individuals) / Low QT, - test (number of individuals): rs993648 genotype AB (- test); for High QT, - test (number of individuals) / High QT, + test (number of individuals) / Low QT, - test (number of individuals) / Low QT, + test (number of individuals): n=174; for High QT, + test (number of individuals) / Low QT, + test (number of individuals): rs993648 genotype non-AB (+ test)
# Method: Since the QT interval changes with changes in heart rate, the QT interval is often measured as a corrected QT (QTc) interval. Any number of formulas may be employed to calculate the QTc, including, for example, the Fridericia formula (QTcF), the Bazett formula (QTcB), and the Rautaharju formula (QTp), among others. In the studies described herein, QT was calculated using the Fridericia formula. However, the present invention includes the use of any such formula or method for calculating a QTc or an uncorrected QT. Using the genotypes at the SNP loci above, it is possible, with a high degree of certainty, to predict an individual's predisposition to QT prolongation.
# [1] = QTc change threshold >5 msec not exceeded
# [2] = QTc change threshold >15 msec not exceeded
# [3] = QTc change threshold >30 msec not exceeded
structure (smiles),measurement,setting,value
COc1cc(C(C)=O)ccc1OCCCN1CCC(c2noc3cc(F)ccc23)CC1 [iloperidone],Odds Ratio,QTc change >5 msec vs rs993648 non-AB genotype,3.62
same,"High QT, - test (number of individuals)",QTc change >5 msec,38
same,"High QT, + test (number of individuals)",QTc change >5 msec,72
same,Odds Ratio,QTc change >15 msec vs rs993648 non-AB genotype,4.45
same,"High QT, - test (number of individuals)",QTc change >15 msec,18
same,"High QT, + test (number of individuals)",QTc change >15 msec,53
same,Odds Ratio,QTc change >30 msec vs rs993648 non-AB genotype,6.16
same,"High QT, - test (number of individuals)",QTc change >30 msec,4
same,"High QT, + test (number of individuals)",QTc change >30 msec,23
same,"Low QT, - test (number of individuals)",[1],42
same,"Low QT, + test (number of individuals)",[1],22
same,"Low QT, - test (number of individuals)",[2],62
same,"Low QT, + test (number of individuals)",[2],41
same,"Low QT, - test (number of individuals)",[3],76
same,"Low QT, + test (number of individuals)",[3],71
